The values below come from patent publication US20120195856A1, “Method of treating patients with cardiovascular illness” (priority 2011, published 2012).

SMILES strings stand for the structures. Where two headings read alike, the source gives them in different places.

Data set [1] is classed as in vivo, human. From the text: Example 1. Patient, came to the clinic with a diagnosis of ischemic heart disease. Exertional angina, functional class III. Postinfarction cardiosclerosis (myocardial infarction in 1981). Atherosclerosis of the coronary arteries. Circulatory deficiency stage IIA. Cerebral atherosclerosis. Chronic cerebral impairment. Symptomatic hypertension. At arrival, complained of a squeezing pain in the area of the heart with radiation to the right hand, which arise both at rest and during physical activity (up to 4-5 times per day) and were relieved by taking nitroglycerin (up to 8 times per day), as well as shortness of breath while walking, vertigo, periodic headaches, ringing in the ears, irritability, and insomnia. The patient was prescribed treatment: anti-angina drugs (Nitrosorbidum 30 mg/day, Corinfar 30 mg/day; also has hypotensive activity), and Valacyclovir 2 tablets (1.0 g) three times a day. […] The atherogenesis index fell from 4.74 to 3.38, and there was an increase in cholesterol/HDL from 1.17 mmol/l to 1.20 mmol/l. During the treatment process, a slowing in the free-radical acidization of lipids was seen; the content of serum malondialdehyde fell from 0.50 mcmol/ml to 0.31 mcmol/ml, diethynoid conjugates fell from 1.332 mcmol/ml to 0.70 mcmol/ml, triethynoid conjugates declined from 0.23 mcmol/ml to 0.14 mcmol/ml; the a-tocopherol content recovered from 2.69 mcmol/ml to 4.32 mcmol/ml; the glutathione reductase activity went from 12.4 mcmol/l h to 22.0 mcmol/l h. On the electrocardiogram, a decrease in the T index from 35.0 to 0, in the SST from 11.0 to 0, and in the NST from 10.0 to 0 were seen. […] Angina pain and shortness of breath not present; nitroglycerine tablets not used. Vertigo and headaches had decreased.
Thus in the process of treatment, in the patient who took Valacyclovir, lipidogram, peroxide acidization of lipids, electrocardiography, and tetrapolar rheography indicators normalized. Valacyclovir side effects were not observed.

On the set-up of data set [2]: species or system human. Conditions: in vivo. The source says: The use of the antiviral drug is not useful for a longer period, as the remission period begins for the patient and the drug is ineffective.
The conditions of data set [3]: Patient M.
A short description of data set [4]: Example 4: patient with ischemic heart disease, lipid and liver complexes after Zocor and then combination anti-viral therapy. In kind it is in vivo, human. The following applies: after six months of Zocor 20 mg/day, goal indicator 4.0.

With `CC(C)[C@H](N)C(=O)OCCOCn1cnc2c(=O)[nH]c(N)nc21` [Valacyclovir], the serum malondialdehyde content in data set [1] (after Valacyclovir 1.0 g three times a day + anti-angina drugs, before 0.50) stood at 0.31 mcmol/ml. In addition, the “LDL in blood serum” value in data set [1] (after Valacyclovir 1.0 g three times a day + anti-angina drugs, before 1.55) is 0.47 mmol/L. The “cholesterol/LDL in blood serum” value in data set [1] (after Valacyclovir 1.0 g three times a day + anti-angina drugs, before 3.99) turned out to be 3.68 mmol/L. The “electrocardiogram NST” value in data set [1] (after Valacyclovir 1.0 g three times a day + anti-angina drugs, before 10.0) stood at 0. Moreover, in data set [1] (after Valacyclovir 1.0 g three times a day + anti-angina drugs, before 11.0), the “electrocardiogram SST” value amounted to 0. Besides, in data set [1] (after Valacyclovir 1.0 g three times a day + anti-angina drugs, before 35.0), the “electrocardiogram T index” value turned out to be 0. Also, the side effects entry in data set [1] (human, in vivo) is reported as “not observed”. The “lipidogram, peroxide acidization of lipids, electrocardiography, and tetrapolar rheography indicators” value in data set [1] (in the process of treatment, patient who took Valacyclovir) is listed as “normalized”. Besides, in data set [1] (within seven weeks, Valacyclovir 1.0 g three times a day + anti-angina drugs), the vertigo and headaches entry is listed as “decreased”. Moreover, the “use of nitroglycerine tablets” value in data set [1] (within seven weeks, before up to 8 times per day) was “not used”. Moreover, the “long-term remission of the illness or substantial positive stabilization of the patient's condition” value in data set [2] is reported as “does not provide long-term remission”. For the same compound, the total cholesterol in data set [3] (after Valacyclovir 1.0 g 3×/day for 3 courses of 7 days, with standard treatment, goal value 5.0) came to 4.7 mmol/L.
In the case of `CCC(C)(C)C(=O)O[C@H]1C[C@@H](C)C=C2C=C[C@H](C)[C@H](CC[C@@H]3C[C@@H](O)CC(=O)O3)[C@H]21` [simvastatin], the total cholesterol in data set [4] is 3.9 mmol/L; in data set [3] (after six months of simvastatin 10 mg/day, goal indicator 5.0) it was 4.9 mmol/L.
For `Nc1nc2c(ncn2COCCO)c(=O)[nH]1` [Acyclovir], in data set [2], the “long-term remission of the illness or substantial positive stabilization of the patient's condition” value is given as “does not provide long-term remission”.
